{"source": "patent US9994590B2", "about": "“Substituted [1,2,4]triazolo[1,5-a]pyrazines as phosphodiesterase inhibitors” (Sunovion Pharamaceuticals Inc., priority 2012, dated 2018)"}
{"target": "recombinant human PDE-10 enzyme (human PDE-10A) (Homo sapiens (Human), UniProt Q9Y233)", "sequence (Q9Y233 whole entry)": "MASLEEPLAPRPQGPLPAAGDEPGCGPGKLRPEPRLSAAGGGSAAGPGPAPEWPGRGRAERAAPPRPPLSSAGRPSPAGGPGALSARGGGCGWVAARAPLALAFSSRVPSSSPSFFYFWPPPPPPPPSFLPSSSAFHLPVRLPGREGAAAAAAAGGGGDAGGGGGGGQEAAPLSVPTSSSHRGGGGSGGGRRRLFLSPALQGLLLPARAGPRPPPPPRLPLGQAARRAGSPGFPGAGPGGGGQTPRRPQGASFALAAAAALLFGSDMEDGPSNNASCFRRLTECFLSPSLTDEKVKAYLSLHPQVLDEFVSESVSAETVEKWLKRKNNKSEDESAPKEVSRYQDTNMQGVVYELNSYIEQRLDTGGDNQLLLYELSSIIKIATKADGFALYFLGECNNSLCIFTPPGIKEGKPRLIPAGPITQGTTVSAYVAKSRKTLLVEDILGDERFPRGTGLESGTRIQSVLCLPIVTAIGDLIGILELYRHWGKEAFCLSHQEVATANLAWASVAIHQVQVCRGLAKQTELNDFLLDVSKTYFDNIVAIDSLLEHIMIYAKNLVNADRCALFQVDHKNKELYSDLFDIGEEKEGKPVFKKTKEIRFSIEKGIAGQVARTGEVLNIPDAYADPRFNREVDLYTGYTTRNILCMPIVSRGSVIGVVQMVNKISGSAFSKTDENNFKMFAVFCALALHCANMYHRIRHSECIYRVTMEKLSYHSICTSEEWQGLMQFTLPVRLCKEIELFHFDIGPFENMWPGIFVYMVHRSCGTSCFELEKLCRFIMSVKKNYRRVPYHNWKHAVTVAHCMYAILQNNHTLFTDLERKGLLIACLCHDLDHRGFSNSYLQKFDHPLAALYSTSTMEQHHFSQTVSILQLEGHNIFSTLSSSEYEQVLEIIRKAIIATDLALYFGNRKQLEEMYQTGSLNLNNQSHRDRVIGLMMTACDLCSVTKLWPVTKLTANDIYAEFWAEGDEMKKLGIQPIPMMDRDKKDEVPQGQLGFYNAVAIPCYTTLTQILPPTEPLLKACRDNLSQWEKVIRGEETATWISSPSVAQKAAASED", "assay": "human PDE-10 inhibition assay (Molecular Devices IMAP PDE Fluorescence Polarization, enzyme assay IC50)", "assay_type": "biochemical", "settings": "Fluorescein-labeled cAMP/cGMP substrate, 40-minute incubation at 37° C.", "description": "In one embodiment, the compounds provided herein were assayed for their ability to inhibit human PDE-10A. In one embodiment, the activities of the compounds were determined using the Molecular Devices IMAP PDE Fluorescence Polarization assay using recombinant human PDE-10 enzyme expressed in a baculoviral system. Briefly, 10 μL of a compound (0.2 nM-20 μM) was added to either a 96-well half area black plate or a 384-well black plate along with 10 μL of Fluorescein-labeled cAMP/cGMP substrate as per manufacturer's instructions and 10 μL of PDE enzyme (activity 0.1 U). Following a 40-minute incubation at 37° C., 60 μL of IMAP binding reagent was added. The plate was then read on a Perkin Elmer Victor (480-535 nm). The data was analyzed using Prism Software (GraphPad Inc, San Diego, Calif.).", "units": {"IC50": "nM"}}
{"smiles": "Cc1ncc(C)n2nc(C3CC3c3nc4c5cccc(F)c5ccn4c3C)nc12", "note": "(racemic) [Compound 30, (±)-2-(2-(5,8-dimethyl-[1,2,4]triazolo[1,5-a]pyrazin-2-yl)cyclopropyl)-7-fluoro-3-methylimidazo[2,1-a]isoquinoline]", "IC50": "10 to 100"}
{"smiles": "Cc1ncc(C)n2nc(C3CC3c3nc4c(OC(F)F)cccn4c3C)nc12", "note": "(racemic) [Compound 31, (±)-2-(2-(8-(difluoromethoxy)-3-methylimidazo[1,2-a]pyridin-2-yl)cyclopropyl)-5,8-dimethyl-[1,2,4]triazolo[1,5-a]pyrazine]", "IC50": "100 to 500"}
{"smiles": "CCOc1cccn2c(C)c(C3CC3c3nc4c(C)ncc(C)n4n3)nc12", "note": "(racemic) [Compound 32, (±)-2-(2-(8-ethoxy-3-methylimidazo[1,2-a]pyridin-2-yl)cyclopropyl)-5,8-dimethyl-[1,2,4]triazolo[1,5-a]pyrazine]", "IC50": "10 to 100"}
{"smiles": "Cc1cc2nc(C3CC3c3nc4c(C)ncc(C)n4n3)c(C)n2cc1F", "note": "(racemic) [Compound 33, (±)-2-(2-(6-fluoro-3,7-dimethylimidazo[1,2-a]pyridin-2-yl)cyclopropyl)-5,8-dimethyl-[1,2,4]triazolo[1,5-a]pyrazine]", "IC50": "100 to 500"}
{"smiles": "COc1cc(F)cn2c(C)c(C3CC3c3nc4c(C)ncc(C)n4n3)nc12", "note": "(racemic) [Compound 34, (±)-2-(2-(6-fluoro-8-methoxy-3-methylimidazo[1,2-a]pyridin-2-yl)cyclopropyl)-5,8-dimethyl-[1,2,4]triazolo[1,5-a]pyrazine]", "IC50": "10 to 100"}
{"smiles": "Cc1ncc(C)n2nc(C3CC3c3nc4c5c(ccn4c3C)OCCO5)nc12", "note": "(racemic) [Compound 35, (±)-9-(2-(5,8-dimethyl-[1,2,4]triazolo[1,5-a]pyrazin-2-yl)cyclopropyl)-8-methyl-2,3-dihydro-[1,4]dioxino[2,3-c]imidazo[1,2-a]pyridine]", "IC50": "10 to 100"}
{"smiles": "COc1cc(C)cn2c(C)c(C3CC3c3nc4c(C)ncc(C)n4n3)nc12", "note": "(racemic) [Compound 36, (±)-2-(2-(8-methoxy-3,6-dimethylimidazo[1,2-a]pyridin-2-yl)cyclopropyl)-5,8-dimethyl-[1,2,4]triazolo[1,5-a]pyrazine]", "IC50": "10 to 100"}
{"smiles": "COc1cc(OC)c2nc(C3CC3c3nc4c(C)ncc(C)n4n3)c(C)n2c1", "note": "(racemic) [Compound 37, (±)-2-(2-(6,8-dimethoxy-3-methylimidazo[1,2-a]pyridin-2-yl)cyclopropyl)-5,8-dimethyl-[1,2,4]triazolo[1,5-a]pyrazine]", "IC50": "10 to 100"}
{"smiles": "Cc1ncc(C)n2nc(C3CCC3c3cn4ccc5c(c4n3)OCCO5)nc12", "note": "(racemic) [Compound 38, (±)-9-(2-(5,8-dimethyl-[1,2,4]triazolo[1,5-a]pyrazin-2-yl)cyclobutyl)-2,3-dihydro-[1,4]dioxino[2,3-c]imidazo[1,2-a]pyridine]", "IC50": "100 to 500"}
{"smiles": "Cc1ncc(C)n2nc(C3CC3c3cn4ccc5c(c4n3)OCCO5)nc12", "note": "(racemic) [Compound 39, (±)-9-(2-(5,8-dimethyl-[1,2,4]triazolo[1,5-a]pyrazin-2-yl)cyclopropyl)-2,3-dihydro-[1,4]dioxino[2,3-c]imidazo[1,2-a]pyridine]", "IC50": "10 to 100"}
{"smiles": "Cc1ncc(C)n2nc(C3CCC3c3nc4c5cccnc5ccc4n3C)nc12", "note": "(racemic) [Compound 40, (±)-2-(2-(5,8-dimethyl-[1,2,4]triazolo[1,5-a]pyrazin-2-yl)cyclobutyl)-3-methyl-3H-imidazo[4,5-f]quinoline]", "IC50": "> 500"}
{"smiles": "COc1cccn2c(C)c(C3CCC3c3nc4c(C)ncc(C)n4n3)nc12", "note": "(racemic) [Compound 42, (±)-2-(2-(8-methoxy-3-methylimidazo[1,2-a]pyridin-2-yl)cyclobutyl)-5,8-dimethyl-[1,2,4]triazolo[1,5-a]pyrazine]", "IC50": "> 500"}
{"smiles": "COc1ccn2c(C)c(C3CCC3c3nc4c(C)ncc(C)n4n3)nc2c1", "note": "(racemic) [Compound 43, (±)-2-(2-(7-methoxy-3-methylimidazo[1,2-a]pyridin-2-yl)cyclobutyl)-5,8-dimethyl-[1,2,4]triazolo[1,5-a]pyrazine]", "IC50": "> 500"}
{"smiles": "COc1cc(C)cn2c(F)c(C3CC3c3nc4c(C)ncc(C)n4n3)nc12", "note": "(racemic) [Compound 44, (±)-2-(2-(3-fluoro-8-methoxy-6-methylimidazo[1,2-a]pyridin-2-yl)cyclopropyl)-5,8-dimethyl-[1,2,4]triazolo[1,5-a]pyrazine]", "IC50": "10 to 100"}
{"smiles": "Cc1ncc(C)n2cc(C3CC3c3nc4c(C)ncc(C)n4n3)nc12", "note": "(racemic) [Compound 45, (±)-2-(2-(5,8-dimethylimidazo[1,2-a]pyrazin-2-yl)cyclopropyl)-5,8-dimethyl-[1,2,4]triazolo[1,5-a]pyrazine]", "IC50": "> 500"}
{"smiles": "COc1cccc2c1nc(C1CC1c1nc3c(C)ncc(C)n3n1)n2C", "note": "(racemic) [Compound 46, (±)-2-(2-(4-methoxy-1-methyl-1H-benzo [d]imidazol-2-yl)cyclopropyl)-5,8-dimethyl-[1,2,4]triazolo[1,5-a]pyrazine]", "IC50": "100 to 500"}
{"smiles": "COc1cccc2[nH]c(C3CC3c3nc4c(C)ncc(C)n4n3)nc12", "note": "(racemic) [Compound 47, (±)-2-(2-(4-methoxy-1H-benzo[d]imidazol-2-yl)cyclopropyl)-5,8-dimethyl-[1,2,4]triazolo[1,5-a]pyrazine]", "IC50": "100 to 500"}
{"smiles": "Cc1ncc(C)n2nc(C3CC3c3nc4c5c(ccn4c3F)OCCO5)nc12", "note": "(racemic) [Compound 48, (±)-9-(2-(5,8-dimethyl-[1,2,4]triazolo[1,5-a]pyrazin-2-yl)cyclopropyl)-8-fluoro-2,3-dihydro-[1,4]dioxino[2,3-c]imidazo[1,2-a]pyridine]", "IC50": "10 to 100"}
{"smiles": "COc1cccn2c(F)c(C3CC3c3nc4c(C)ncc(C)n4n3)nc12", "note": "(racemic) [Compound 55, (±)-2-(2-(3-fluoro-8-methoxyimidazo[1,2-a]pyridin-2-yl)cyclopropyl)-5,8-dimethyl-[1,2,4]triazolo[1,5-a]pyrazine]", "IC50": "10 to 100"}
{"smiles": "Fc1ccn2cc(C3CCC3c3cn4cccc(Cl)c4n3)nc2c1", "note": "(racemic) [Compound 58, (±)-8-chloro-2-(2-(7-fluoroimidazo[1,2-a]pyridin-2-yl)cyclobutyl)imidazo[1,2-a]pyridine]", "IC50": "> 500"}
{"smiles": "COc1cccn2cc(C3CC3c3nc4c(C)ncc(C)n4n3)nc12", "note": "(racemic) [Compound 59, (±)-2-(2-(8-methoxyimidazo[1,2-a]pyridin-2-yl)cyclopropyl)-5,8-dimethyl-[1,2,4]triazolo[1,5-a]pyrazine]", "IC50": "100 to 500"}
{"smiles": "Cn1c([C@H]2C[C@@H]2c2ccc3ccccc3n2)nc2c3cccnc3ccc21", "note": "(single isomer, unassigned) [Compound 21]", "IC50": "10 to 100"}
{"smiles": "Cn1c([C@@H]2C[C@H]2c2ccc3ccccc3n2)nc2c3cccnc3ccc21", "note": "(single isomer, unassigned) [Compound 22]", "IC50": "100 to 500"}
{"smiles": "Cc1ncc(C)n2nc([C@H]3C[C@@H]3c3nc4c5cccnc5ccn4c3C)nc12", "note": "(single isomer, unassigned) [Compound 26]", "IC50": "100 to 500"}
{"smiles": "Cc1ncc(C)n2nc([C@@H]3C[C@H]3c3nc4c5cccnc5ccn4c3C)nc12", "note": "(single isomer, unassigned) [Compound 27]", "IC50": "≤ 10"}
{"smiles": "COc1cccn2c(F)c([C@@H]3C[C@H]3c3nc4c(C)ncc(C)n4n3)nc12", "note": "(single isomer, unassigned) [Compound 56, 2-(2-(3-fluoro-8-methoxyimidazo[1,2-a]pyridin-2-yl)cyclopropyl)-5,8-dimethyl-[1,2,4]triazolo[1,5-a]pyrazine]", "IC50": "> 500"}
{"smiles": "COc1cccn2c(F)c([C@@H]3C[C@H]3c3nc4c(C)ncc(C)n4n3)nc12", "note": "(single isomer, unassigned) [Compound 57, 2-(2-(3-fluoro-8-methoxyimidazo[1,2-a]pyridin-2-yl)cyclopropyl)-5,8-dimethyl-[1,2,4]triazolo[1,5-a]pyrazine]", "IC50": "10 to 100"}
{"smiles": "Cc1ncc(C)n2nc(C3CC3c3nc4c5cccnc5ccn4c3C)nc12", "note": "(stereo not shown) [Compound 1, 2-(2-(5,8-Dimethyl-[1,2,4]triazolo[1,5-a]pyrazin-2-yl)cyclopropyl)-3-methylimidazo[2,1-f][1,6]naphthyridine]", "IC50": "≤ 10"}
{"smiles": "COc1ccn2cc(C3CC3c3nc4c(C)ncc(C)n4n3)nc2c1C", "note": "(stereo not shown) [Compound 2, 2-(2-(7-Methoxy-8-methylimidazo[1,2-a]pyridin-2-yl)cyclopropyl)-5,8-dimethyl-[1,2,4]triazolo[1,5-a]pyrazine]", "IC50": "> 500"}
{"smiles": "Cc1ncc(C)n2nc(C3CC3c3nc4c5ccccc5ccn4c3C)nc12", "note": "(stereo not shown) [Compound 3]", "IC50": "≤ 10"}
{"smiles": "Cc1ncc(C)n2nc(C3CC3c3nc4cc(F)ccn4c3C)nc12", "note": "(stereo not shown) [Compound 4]", "IC50": "> 500"}
{"smiles": "Cc1ncc(C)n2nc(C3CC3c3nc4c(C5CC5)cccn4c3C)nc12", "note": "(stereo not shown) [Compound 5, 2-(2-(8-Cyclopropyl-3-methylimidazo[1,2-a]pyridin-2-yl)cyclopropyl)-5,8-dimethyl-[1,2,4]triazolo[1,5-a]pyrazine]", "IC50": "10 to 100"}
{"smiles": "Cc1ccn2c(C)c(C3CC3c3nc4c(C)ncc(C)n4n3)nc2c1", "note": "(stereo not shown) [Compound 6, 2-(2-(3,7-Dimethylimidazo[1,2-a]pyridin-2-yl)cyclopropyl)-5,8-dimethyl-[1,2,4]triazolo[1,5-a]pyrazine]", "IC50": "100 to 500"}
{"smiles": "Cc1ccn2c(C)c(C3CC3c3cn4ccc(F)cc4n3)nc2c1", "note": "(stereo not shown) [Compound 7, 2-(2-(7-Fluoroimidazo[1,2-a]pyridin-2-yl)cyclopropyl)-3,7-dimethylimidazo[1,2-a]pyridine]", "IC50": "> 500"}
{"smiles": "Cc1cccn2cc(C3CC3c3cn4cccc(C)c4n3)nc12", "note": "(stereo not shown) [Compound 8, 1,2-Bis(8-methylimidazo[1,2-a]pyridin-2-yl)cyclopropane]", "IC50": "> 500"}
{"smiles": "Fc1ccn2cc(C3CC3c3cn4ccc(F)cc4n3)nc2c1", "note": "(stereo not shown) [Compound 9]", "IC50": "> 500"}
{"smiles": "Fc1cccn2cc(C3CC3c3cn4cccc(F)c4n3)nc12", "note": "(stereo not shown) [Compound 10]", "IC50": "> 500"}
